pEC50: −log10 of the molar value.
What was measured:
[1] = tested on: Cowpox virus; assay: Antiviral activity against Cowpox virus in HFF cells; format: functional, organism-based
[2] = tested on: Vaccinia virus; assay: Antiviral activity against Vaccinia virus in HFF cells; format: functional, organism-based; conditions: Orthopoxvirus vaccinia
[3] = tested on: HFF; assay: Cytotoxicity in HFF cells; format: functional; conditions: Homo sapiens

| Compound | pEC50 [1] | pEC50 [2] | EC90 [1] | EC90 [2] | CC50 [3] |
| --- | --- | --- | --- | --- | --- |
| Nc1ccn(C[C@@H](CO)OCP(=O)(O)O)c(=O)n1 [CIDOFOVIR] | 5.30 | 5.32 | – | – | – |
| Nc1ncnc2c1ccn2[C@@H]1C=C(CO)[C@@H](O)[C@H]1O [DEAZANEPLANOCIN A] | 5.92 | 5.47 | 4.6 µM | 21.5 µM | > 300 µM |
